How the values were obtained:
RdSqgA = molecular target: T1, RdSqgA (Roseobacter denitrificans, UniProt Q167F5); assay: LC-MS of SQ formation; format: biochemical; conditions: 200 mM NH4HCO3 pH 7.0, room temperature overnight
T1 sequence (Q167F5 1-366): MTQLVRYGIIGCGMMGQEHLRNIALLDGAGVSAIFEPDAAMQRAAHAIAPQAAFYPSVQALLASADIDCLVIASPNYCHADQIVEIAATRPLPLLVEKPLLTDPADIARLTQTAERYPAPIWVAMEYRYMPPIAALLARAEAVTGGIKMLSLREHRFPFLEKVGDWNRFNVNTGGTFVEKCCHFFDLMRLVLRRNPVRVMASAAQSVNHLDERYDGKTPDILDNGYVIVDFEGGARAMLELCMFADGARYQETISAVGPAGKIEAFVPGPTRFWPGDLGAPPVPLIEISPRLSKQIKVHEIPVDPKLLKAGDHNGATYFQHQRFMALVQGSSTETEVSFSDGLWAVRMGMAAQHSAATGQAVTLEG

CtSqgA = molecular target: T2, CtSqgA (Chaetoceros tenuissimus, UniProt A0AAD3HCU0); assay: sulfoquinovosidase activity assay; format: biochemical; conditions: details only in supplement
T2 sequence (A0AAD3HCU0 1-457): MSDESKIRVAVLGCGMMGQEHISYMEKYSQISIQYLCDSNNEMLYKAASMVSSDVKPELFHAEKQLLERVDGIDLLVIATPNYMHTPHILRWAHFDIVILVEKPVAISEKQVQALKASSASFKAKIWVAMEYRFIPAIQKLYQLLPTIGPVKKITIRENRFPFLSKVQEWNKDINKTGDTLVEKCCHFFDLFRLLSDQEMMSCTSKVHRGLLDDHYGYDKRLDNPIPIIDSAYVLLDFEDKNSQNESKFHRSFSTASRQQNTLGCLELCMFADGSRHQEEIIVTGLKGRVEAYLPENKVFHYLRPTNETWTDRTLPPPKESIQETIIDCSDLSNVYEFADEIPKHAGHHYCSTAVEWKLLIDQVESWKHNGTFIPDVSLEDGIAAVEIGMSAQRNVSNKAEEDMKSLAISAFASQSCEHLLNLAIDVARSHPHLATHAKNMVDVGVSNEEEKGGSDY

PpSqgA = molecular target: T3, PpSqgA (Porphyridium purpureum, UniProt A0A5J4YS60); assay: sulfoquinovosidase activity assay; format: biochemical; conditions: details only in supplement
T3 sequence (A0A5J4YS60 1-369): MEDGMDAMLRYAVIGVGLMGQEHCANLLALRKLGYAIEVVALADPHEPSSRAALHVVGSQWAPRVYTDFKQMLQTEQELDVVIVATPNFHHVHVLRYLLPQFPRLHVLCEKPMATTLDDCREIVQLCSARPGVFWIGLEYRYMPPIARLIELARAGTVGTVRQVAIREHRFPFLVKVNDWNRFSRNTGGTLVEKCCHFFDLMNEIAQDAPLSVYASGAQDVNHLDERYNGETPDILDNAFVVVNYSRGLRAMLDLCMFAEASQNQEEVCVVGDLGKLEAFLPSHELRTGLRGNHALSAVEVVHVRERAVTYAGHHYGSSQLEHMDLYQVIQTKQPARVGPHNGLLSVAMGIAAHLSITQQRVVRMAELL

purified protein = substrate: O=[N+]([O-])c1ccc(O[C@H]2O[C@H](CS(=O)(=O)O)[C@@H](O)[C@H](O)[C@H]2O)cc1; assay: purified protein; conditions: 10 mM phosphate buffer pH 7.5 (general assay buffer)

In the case of `NC(=O)c1ccc[n+]([C@@H]2O[C@H](COP(=O)(O)OP(=O)(O)OC[C@H]3O[C@@H](n4cnc5c(N)ncnc54)[C@H](O)[C@@H]3O)[C@@H](O)[C@H]2O)c1` [NAD^+], the “LC-MS of SQ formation” value (RdSqgA; 20 uM SQGro) is reported as “RdSqgA, revealed it to be an NAD^+-dependent sulfoquinovosidase”.

For `O=S(=O)(O)C[C@H]1O[C@H](OC[C@H](O)CO)[C@H](O)[C@@H](O)[C@@H]1O` [SQGro], the “LC-MS of SQ formation” value (RdSqgA; 10 mM NAD+) was “NAD^+-dependent sulfoquinovosidase that acts on SQGro to form SQ”, the “sulfoquinovosidase activity assay (SQ release)” value (CtSqgA) was “These homologs have sulfoquinovosidase activity, allowing the liberation of SQ” and the “sulfoquinovosidase activity assay (SQ release)” value (PpSqgA) was “These homologs have sulfoquinovosidase activity, allowing the liberation of SQ”.

B1: AmSqgH (Alteromonas macleodii ATCC 27126) (protein)
chain: MSNAFCVNEPEWNDIKAADITEQPFLSDDKTLIVPTQYGELSLSISQFGLRIQSNVNAADDFGMLTQAPERLSLVLSGDQSHSTLAAGDYRLEVFAAPLHFKLYKNDVLVQQSATDGHFVRQHRLPPFAKTDKGWLLSLELSYDEAVYGLGEKWGKLDKRGQLIRSYNHDALGVNAEKSYKNTPYAWSPEGWNLFVHTPAPVTHGVGYALWSQRAYVCLVEDNVLDMFLFHQDSPAKCLQTYSELTGFAPTPPTWSLGVILSKAYYKDADELLAVAREVREKNMPCDVITLDGRAWQDTDTRFAFEWDPKRYADPQPVIDELKALGFKICVWEYPMISVKNPLYKKAADKGWLIKDKRTGEAYRYEWDLSPFGEVLTPLPDSGILDFTHPEAYEFWKTSHKPLFDLGIDMIKADFGEQLEDDNMLSYSGDSGNRLHNVYSMLYNRCVYEAADAYCKTGPFLFSRSAWTGSQRYPSQWGGDPQADWHGLAASIRGSLSWGMSGGPFFATDIGGFYKDTRDAELYVRWAQASVFSAHMRLHGIGPREPWSYGDAASNAVFEALKLRYKLIPYLKETAEKASQTGLPVQRAMALAFPEQPLSHGFEQQFMCGDDLLVVPCVVPGGKIKYYLPKGKWIRFGTEEVVQGEQYREEILALNDVAVFIQKGSRIVMGPDVQHTDMDMSNTTHWPA
B1 showed a Km (purified protein) of 13.0 ± 2.2 mM and a kcat (purified protein) of 119 ± 19 s⁻¹.

— paper PMC12780224 (Nature Communications, 2025)
